SMILES strings stand for the structures. pKi: −log10 of the molar value.

In this experiment the target is D(3) dopamine receptor (Homo sapiens, UniProt P35462). The experiment in a line: Binding affinity against human Dopamine receptor D3 expressed in CHO cells by using [125I]iodosulpiride as radioligand.
Chain of D(3) dopamine receptor (P35462 as listed by the source): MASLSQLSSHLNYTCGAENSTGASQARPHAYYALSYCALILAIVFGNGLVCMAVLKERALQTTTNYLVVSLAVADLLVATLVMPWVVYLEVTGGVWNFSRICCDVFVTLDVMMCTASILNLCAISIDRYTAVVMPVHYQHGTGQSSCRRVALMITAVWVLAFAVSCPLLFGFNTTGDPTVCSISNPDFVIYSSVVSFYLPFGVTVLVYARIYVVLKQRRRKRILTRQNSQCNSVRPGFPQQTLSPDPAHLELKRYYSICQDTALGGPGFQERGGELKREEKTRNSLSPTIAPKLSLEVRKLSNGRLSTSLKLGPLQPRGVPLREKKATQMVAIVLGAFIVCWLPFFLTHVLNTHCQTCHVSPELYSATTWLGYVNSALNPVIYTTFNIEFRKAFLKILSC
Consider `CS(=O)(=O)Oc1ccc2c(c1)CCN(CC[C@H]1CC[C@H](NC(=O)C=Cc3cccc(F)c3)CC1)CC2`, for which the negative-log Ki (pKi) (in general, the negative decadic logarithm of the Ki, by convention in mol/L) was 8.89. The result for `CS(=O)(=O)Oc1ccc2c(c1)CCN(CC[C@H]1CC[C@H](NC(=O)C=Cc3ccccc3F)CC1)CC2` reads 8.89.

The compound `CS(=O)(=O)c1ccc2c(c1)CCN(CC[C@H]1CC[C@H](NC(=O)C=Cc3ccccc3F)CC1)CC2` had a pKi of 8.89.

Consider `COc1ccccc1C=CC(=O)N[C@H]1CC[C@H](CCN2CCc3ccc(OS(C)(=O)=O)cc3CC2)CC1`, for which the pKi is 8.89.

Source of the values: BindingDB's records for doi:10.1021/jm030817d (Glaxosmithkline Pharmaceuticals, 2003).
